Source: patent US20210283163A1, “COMPOSITIONS AND METHODS FOR THE TREATMENT OF ACUTE AND CHRONIC PRURITIS” (Duke University, priority 2018, published 2021)

Tests used:
TRPV2 = target: T1, TRPV2 (Mus musculus, UniProt Q9WTR1); test: Whole-cell patch clamp in CHO cells transfected with mouse Trpv2 cDNA; assay type: cell-based; details: miR-711 10 μM; cannabidiol 100 μM
T1 construct: expressed in transfected cells; host or cells: CHO cells (ATCC CRL-9096), plasmid pcDNA3.1-mTrpv2, a gift from Korea University
T1 sequence (Q9WTR1 1-756): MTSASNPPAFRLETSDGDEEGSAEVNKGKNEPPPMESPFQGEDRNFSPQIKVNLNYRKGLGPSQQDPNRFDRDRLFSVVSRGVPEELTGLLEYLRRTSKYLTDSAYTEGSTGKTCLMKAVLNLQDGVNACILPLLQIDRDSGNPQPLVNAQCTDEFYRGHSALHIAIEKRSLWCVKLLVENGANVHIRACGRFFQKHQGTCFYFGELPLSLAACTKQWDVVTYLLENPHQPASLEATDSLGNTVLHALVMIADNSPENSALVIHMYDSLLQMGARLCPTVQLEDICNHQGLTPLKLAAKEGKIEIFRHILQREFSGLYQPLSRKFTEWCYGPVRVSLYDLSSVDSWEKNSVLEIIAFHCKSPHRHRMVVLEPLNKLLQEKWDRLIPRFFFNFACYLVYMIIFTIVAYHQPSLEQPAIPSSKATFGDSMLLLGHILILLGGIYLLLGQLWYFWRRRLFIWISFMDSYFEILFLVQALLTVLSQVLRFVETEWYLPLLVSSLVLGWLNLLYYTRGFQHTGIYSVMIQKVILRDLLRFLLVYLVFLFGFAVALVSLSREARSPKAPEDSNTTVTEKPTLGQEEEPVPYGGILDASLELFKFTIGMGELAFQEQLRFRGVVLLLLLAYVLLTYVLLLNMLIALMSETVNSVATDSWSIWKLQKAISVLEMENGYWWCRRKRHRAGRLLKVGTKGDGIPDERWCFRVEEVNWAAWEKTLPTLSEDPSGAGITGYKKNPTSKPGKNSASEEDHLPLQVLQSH
Method: (§1) Constructs. The cDNAs of mouse pcDNA3.1-Trpa1, pcDNA3.1-Trpv1, pcDNA3.1-Trpv2, pcDNA3.1-Trpv3, and pcDNA3.1-Trpv4 were kindly provided Dr. Sun Work Hwang from Korea University. Mouse Trpa1 cDNA was subcloned into pCGN-HA backbone (Addgene) using In-Fusion HD Cloning Kit (Clontech Laboratories, CA). Q5 Site-Directed Mutagenesis Kit was used to generate mTrpa1 mutant (M1-M13) based on pCGN-mTrpa1.
(§2) Cell Culture and Transfection. CD4^+ Myla cell line was cultured in RPMI 1640 media (GIBCO), supplemented with 2 mM Glutamine (GIBCO), 100 U/mL IL-2 (Sigma), 100 U/mL IL-4 (Sigma), and 10% human AB serum (Sigma). HuT 102 cell line was cultured in RPMI 1640 supplemented with pyruvate, HEPES, and 10% (v/v) fetal bovine serum (HyClone). HEK293-hTRPA1 stable cell line was cultured in MEM (GIBCO) containing 2 mM Glutamine, 4 μg/mL Blasticidin, 10% FBS (v/v). B16 and CHO cells were cultured in high glucose (4.5 g/L) Dulbecco's Modified Eagle's Medium (GIBCO) containing 10% (v/v) fetal bovine serum (GIBCO). Culture media were supplemented with 50 units/mL of penicillin and 50 μg/mL streptomycin, and cultures were maintained with 5% CO2 in 37° C. incubator. Transfection (2 μg cDNA) was performed with Lipofectamine™ 2000 Reagent (Invitrogen) at 80% confluency and the transfected cells were cultured in the same media for 48 hr before electrophysiological and biochemical studies. […]

TRPV3 = target: T2, TRPV3 (Mus musculus, UniProt Q8K424); test: Whole-cell patch clamp in CHO cells transfected with mouse Trpv3 cDNA; assay type: cell-based; details: miR-711 10 μM; carvacrol 300 μM
T2 construct: expressed in transfected cells; host or cells: CHO cells (ATCC CRL-9096), plasmid pcDNA3.1-mTrpv3, a gift from Korea University
T2 sequence (Q8K424 1-791): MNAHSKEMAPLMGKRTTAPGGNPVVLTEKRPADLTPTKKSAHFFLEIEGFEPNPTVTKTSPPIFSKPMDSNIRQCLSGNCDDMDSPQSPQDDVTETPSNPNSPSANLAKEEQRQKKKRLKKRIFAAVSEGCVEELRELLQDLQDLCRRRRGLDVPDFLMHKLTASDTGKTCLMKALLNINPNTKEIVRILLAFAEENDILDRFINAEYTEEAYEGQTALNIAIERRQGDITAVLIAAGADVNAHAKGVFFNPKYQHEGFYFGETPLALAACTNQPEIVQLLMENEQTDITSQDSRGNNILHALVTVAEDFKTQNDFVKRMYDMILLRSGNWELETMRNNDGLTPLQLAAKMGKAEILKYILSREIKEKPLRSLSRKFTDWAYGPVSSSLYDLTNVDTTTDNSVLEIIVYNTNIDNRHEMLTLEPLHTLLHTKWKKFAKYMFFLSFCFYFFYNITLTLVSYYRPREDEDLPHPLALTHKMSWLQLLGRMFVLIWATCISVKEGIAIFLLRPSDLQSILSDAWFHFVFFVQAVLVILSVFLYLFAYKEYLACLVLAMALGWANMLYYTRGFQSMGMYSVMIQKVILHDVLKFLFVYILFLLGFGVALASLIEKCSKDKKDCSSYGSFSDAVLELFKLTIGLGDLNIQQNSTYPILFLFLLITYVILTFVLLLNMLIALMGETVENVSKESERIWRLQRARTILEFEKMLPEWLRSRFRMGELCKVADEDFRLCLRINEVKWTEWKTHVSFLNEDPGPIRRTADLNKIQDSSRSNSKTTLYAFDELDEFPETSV
Method: as §1, §2

“miR-711: mmu-miR-711: gggacccggggagagauguaag (SEQ ID NO: 5) (GGGACCCGGGGAGAGAUGUAAG; chemistry not given here)” was tested, and the inward currents (TRPV2) was “failed to trigger inward currents” and the inward currents (TRPV3) was “failed to trigger inward currents”.
